Assay results as given in patent US8318787B2, “Prodrugs of (3,5-bis(4-fluorophenyl)tetrahydro-1H-oxazolo[3,4-C]oxazol-7A-yl)methanol and derivatives thereof” (University of Kansas, priority 2005, dated 2012).

Experiments:
Tubulin [1] = assay: Tubulin assembly centrifugation assay; assay type: biochemical; settings: 1.0 μM compound
Experimental: In this example, the mechanism of TH-237A's neuroprotective effects was investigated. In a first experiment, the microtubule-stabilizing ability of TH-237A was investigated using a tubulin assembly centrifugation assay. Tubulin (1.0 mg/ml), free of microtubule-associated proteins (“MAPs”), was incubated in PEM buffer (0.1 M Pipes, 1 mM EGTA, 1 mM MgSO4, pH 6.9), 4% DMSO, various concentrations of paclitaxel or TH-237A, with or without 0.5 mM GTP, in a total volume of 0.1 ml for 15 minutes at 37° C. Samples were centrifuged at 50,000×g for 4 minutes in a Beckman TL-100 ultracentrifuge. Protein determinations were performed on the supernatants and the amount of polymer formed was calculated from the difference between the starting concentration and the supernatant concentration. The maximum concentration of polymer was taken to be that formed at 25 μM paclitaxel. An experiment was also done using a tubulin preparation containing microtubule-associated proteins (“MTP”) at a protein concentration of 2 mg/ml without GTP.

in vitro = settings: bovine, pH 7.4
Experimental: The BBMECs were grown on 0.4 μm polycarbonate membranes. […] Transport studies were performed in pH 7.4 standard buffer solutions, consisting of either Hank's balanced salt solution (HBSS) or phosphate buffered saline (PBS) supplemented with 0.63 mM CaCl2, 0.74 mM MgSO4, 5.3 mM glucose and 0.1 mM ascorbic acid (PBSA). Briefly, all studies were performed in 3 ml of PBSA in each donor and receiver chamber of the side-by-side diffusion chambers and stirred at 600 rpm at 37° C. The cells were allowed to equilibrate in PBSA for 30 minutes prior to each experiment and oriented such that apical or blood side of the cells face the donor chamber and the basolateral or brain side of the cells adhere to the polycarbonate membranes and face the receiver chamber of the diffusion apparatus. At each time point, a 100 μl sample was taken from the receiver compartment and immediately replaced with an equal volume of PBSA. The transport studies were performed in the presence or absence of CsA (5-10 μM). Monolayers were checked for trypan blue exclusion after experiments as well to assess general cell viability. The permeability of all monolayers used in these experiments was monitored for [^14C] sucrose leakage as a measure of potential TH-237A-induced loss of integrity. The radioactivity was quantified using liquid scintillation spectrometry.

microtubules [2] = assay: Competitive binding of paclitaxel and TH-237A to microtubules; settings: addition of 40 μM Taxol
Experimental: Competitive binding of paclitaxel and TH-237A—Microtubules were formed from MTP (2 mg/ml) in the presence of 0.5 mM GTP. […] […] After 10 minutes at 37° C., the microtubules were collected by centrifugation and dissolved in 0.1 ml of 0.1 M NaOH. Protein and radioactivity determinations of the dissolved microtubules were performed.

microtubules [3] = assay: Cold stability of microtubules; assay type: biochemical; settings: 25 μM compound, on ice 15 minutes
Experimental: In another experiment, the cold stability of microtubles was investigated. Microtubules were formed from MAP-free tubulin (2 mg/ml) and MTP (2 mg/ml) at 37° C. A sample was centrifuged at 50,000×g to determine the amount of polymer formed. To three other samples DMSO, 20 μM paclitaxel or 400 μM TH-237A was added, and the samples were placed on ice for 15 minutes before centrifuging at 4° C. Pellets were dissolved in 0.1 ml of 0.1 M NaOH and protein determinations were made on the supernatants and pellets. Cold-induced depolymerization leads to an increase in the supernatant protein concentration.

cellular microtubules = assay: Immunostaining of cellular microtubules; assay type: cell-based; settings: 1 and 10 μM
Experimental: Immunostaining of cellular microtubules—Cells were grown in monolayer on sterile slide cover slips in a 6-well plate and treated with paclitaxel or TH-237A for different periods of time. The cover slips were washed with phosphate-buffered saline and the cells fixed by treatment with 95% EtOH at −20° C. for 30 minutes. The cover slips were placed in a humidified chamber and treated with the primary antibody (a mouse anti-β-tubulin monoclonal antibody) for 2 hours to overnight at room temperature. This was followed by washing with phosphate-buffered saline and treatment with the secondary antibody (FITC goat anti-mouse) for 1 hour at room temperature. Cover slips were examined on a Nikon Optiphot fluorescence microscope.

Tubulin [4] = settings: reported by Shintani et al. 1997; cited from earlier work

| Compound | % of tubulin polymerized (Tubulin [1]) | Papp (in vitro) | displacement of bound labeled TH-237A (100 μM) from microtubules (microtubules [2]) | cold-induced depolymerization of microtubules prevented (microtubules [3]) | polymerization of the microtubules in situ in the cells (cellular microtubules) | stimulation of tubulin polymerization relative to paclitaxel (Tubulin [4]) |
| --- | --- | --- | --- | --- | --- | --- |
| CC(=O)O[C@H]1C(=O)[C@@]2(C)[C@H]([C@H](OC(=O)c3ccccc3)[C@]3(O)C[C@H](OC(=O)[C@H](O)[C@@H](NC(=O)c4ccccc4)c4ccccc4)C(C)=C1C3(C)C)[C@]1(OC(C)=O)CO[C@@H]1C[C@@H]2O [Taxol, Paclitaxel] | 75% | 5 ×10⁻⁶ cm/s | about 5% | ~100% | clearly evident |  |
| OCC12CO[C@H](c3ccc(F)cc3)N1[C@@H](c1ccc(F)cc1)OC2 [GS-164, (3R,5R)-(3,5-bis(4-fluorophenyl)tetrahydro-1H-oxazolo[3,4-c]oxazol-7a-yl)methanol] |  |  |  |  |  | one-tenth |
